Results reported in patent US9085593B2, “Therapeutic agent for arthrosis” (SANSHO CO., LTD., priority 2011, dated 2015).
Values joined by “and” are separate entries in the source; they are usually repeats but may differ in a detail not shown here. Identical values can stand only once.

Test system: osteoarthritis in rabbit knee
Experiment: Histopathological evaluation of femur and tibia condyles, rabbit knee osteoarthritis model
Assay type: in vivo, rabbits (Kbs:NZW)
Parameters: key to Fibrillation and/or fissure / Lowered proteoglycan stainability / Disorganization of chondrocytes / Loss of chondrocytes / Exposure of subchondral bone / Cluster formation / Histopathological score / Loss of superficial layer / Cartilage erosion: 0: None; 1: slight; 2: mild; 3: moderate; 4: severe; key to Disorganization of chondrocytes, Mean / Loss of chondrocytes, Mean / Exposure of subchondral bone, Mean / Cluster formation, Mean / Cartilage erosion, Mean: grade 0 to +4 per item; key to Histopathological score, Mean: sum of 8 items each graded 0 to +4
Settings: for Cluster formation / Disorganization of chondrocytes / Exposure of subchondral bone / Fibrillation and/or fissure / Loss of chondrocytes / Lowered proteoglycan stainability / Cartilage erosion / Loss of superficial layer / Histopathological score / Cartilage erosion, Mean / Cluster formation, Mean / Disorganization of chondrocytes, Mean / Exposure of subchondral bone, Mean / Fibrillation and/or fissure, Mean / Loss of chondrocytes, Mean / Loss of superficial layer, Mean / Lowered proteoglycan stainability, Mean / Histopathological score, Mean: day 42; for Cluster formation / Disorganization of chondrocytes / Exposure of subchondral bone / Fibrillation and/or fissure / Loss of chondrocytes / Lowered proteoglycan stainability / Cartilage erosion / Loss of superficial layer / Histopathological score: individual animals 201-206; for Cluster formation / Disorganization of chondrocytes / Exposure of subchondral bone / Fibrillation and/or fissure / Loss of chondrocytes / Lowered proteoglycan stainability / Cartilage erosion / Loss of superficial layer: grade 0-4; for Histopathological score: sum of all items; for Cartilage erosion, Mean / Cluster formation, Mean / Disorganization of chondrocytes, Mean / Exposure of subchondral bone, Mean / Fibrillation and/or fissure, Mean / Loss of chondrocytes, Mean / Loss of superficial layer, Mean / Lowered proteoglycan stainability, Mean / Histopathological score, Mean: group mean n=6
Procedure: Twelve 11- to 12-week-old male rabbits (Kbs:NZW) were used. Rabbits were reared in separate cages (one rabbit per cage) at 14.4° C. to 24.9° C. under light (12 hours from 7:00 am to 7:00 pm) with continuous ventilation. Rabbits were allowed to eat 150 g of feed (CR-3, CLEA Japan, Inc.) per day and to drink tap water.
(9Z)-9-Octadecenoic acid-(2-hydroxy-2-oxide-1,2-oxaphospholan-4-yl)methyl ester sodium salt (C18:1-cPA; hereafter, referred to as “ScPA”) was used.
Hair in the vicinity of the knee joint of the right hind limb of a rabbit was shaved using electrical clippers under deep anesthesia, and the shaved area was disinfected with Isodine. The outer coat on the medial aspect of the right hind limb was incised with a surgical knife, the boundary between the medial aspect and the articular capsule of the patellofemoral ligament was further incised, and the medial patellofemoral ligament was then dissected. Thereafter, the articular capsule was spread wide open to expose the medial meniscus, which was then completely removed. Following the removal of the meniscus, tissue and epidermis in the vicinity of the articular capsule were sutured. At the time of suturing, the site of operation was washed with physiological saline (titer: 500 mg/20 ml) containing antibiotics (Viccillin, Meiji Seika Pharma Co., Ltd.).
After the model animals were prepared, they were divided into two groups each consisting of 6 individuals while averaging body […] (i.e., the vehicle administered group of Animal Numbers 101 to 106 and the test substance (ScPA) administered group of Animal Numbers 201 to 206).
The test compound and the vehicle were administered in the manner described below. • Route of administration: into the joint cavity • Site of administration: right hind limb (treated limb) • Timing of administration: on days 7, 11, 14, 18, 21, 25, 28, 32, 35, and 39 • Dosage: Test compound: 10 μg/rabbit (volume: 0.2 ml) • Vehicle: 0.2 ml/rabbit • Means of administration: with the use of a 1.0-ml syringe (Terumo Corporation) and a 27 G injection needle (Terumo Corporation) (1-5) Pain Assessment (Weight Distribution Across both Hind Limbs) Frequency of Measurement:
Four limbs were dissected from the animals under deep anesthesia, causing them to bleed to death. Thereafter, the femur condyle and the tibial condyle were removed from the knee joint of the treated limb (the right hind limb), followed by fixation in a 10% neutral buffered formalin solution.
The femur and the tibia that had been soaked and fixed in a 10% neutral buffered formalin solution were subjected to demineralization with EDTA. After the completion of demineralization, the colored sites identified below were embedded in paraffin in accordance with a conventional technique, and the resultant was sliced to a thickness of 4 μm each. The slices were subjected to hematoxylin-eosin (HE) staining and safranin O (proteoglycan) staining and histopathologically examined under an optical microscope (BX51TF; OLYMPUS). The degree of cartilage degeneration of the pathological specimens was evaluated in accordance with the criteria shown in Table 1 below (Kikuchi, T, Yoneda, H. et al., Osteoarthritis cartilage, 4; p. 99 and continuing pages, 1996). Specifically, the specimens were evaluated in terms of loss of the following 8 items according to a five-grade evaluation (0 to +4): superficial layer; cartilage erosion; fibrillation and/or fissure; lowered proteoglycan stainability (safranin O stainability); disorganization of chondrocytes; loss of chondrocytes; exposure of subchondral bone; and cluster formation. The sum total score of all items was defined as the overall score. Observation items without specific criteria defined in Table 1 were evaluated in accordance with the criteria shown in Table 2 below (Naoki Ishiguro et al., Journal of Surgery, 29: p. 112 and continuing pages, 2010).

[1] = lateral condyle of femur, listed as Test substance, sodium salt
[2] = lateral condyle of tibia, listed as Test substance, sodium salt
[3] = medial condyle of femur, listed as Test substance, sodium salt
[4] = medial condyle of the femur, of 6 samples
[5] = medial condyle of the tibia, of 6 samples
[6] = medial condyle of tibia, listed as Test substance, sodium salt

CCCCCCCC/C=C\CCCCCCCC(=O)OCC1COP(=O)([O-])C1.[Na+] (stereo not shown) [ScPA, (9Z)-9-Octadecenoic acid-(2-hydroxy-2-oxide-1,2-oxaphospholan-4-yl)methyl ester sodium salt]
cartilage erosion in histopathological image (FIG. 12 B) (Animal No. 201, medial aspect of the right femur, HE staining): slight
joint cartilage change in histopathological image (FIG. 12 D) (Animal No. 201, medial aspect of the right femur, SO staining): no change
Cluster formation (lateral condyle of femur): 0
Disorganization of chondrocytes (lateral condyle of femur): 0
Exposure of subchondral bone (lateral condyle of femur): 0
Fibrillation and/or fissure (lateral condyle of femur): 0
Loss of chondrocytes (lateral condyle of femur): 0
Lowered proteoglycan stainability (lateral condyle of femur): 0
Cartilage erosion [1]: 0 (4×) and 1 (2×)
Loss of superficial layer [1]: 0 (4×) and 1 (2×)
Histopathological score [1]: 0 (4×) and 2 (2×)
Cartilage erosion (lateral condyle of tibia): 0
Cluster formation (lateral condyle of tibia): 0
Disorganization of chondrocytes (lateral condyle of tibia): 0
Exposure of subchondral bone (lateral condyle of tibia): 0
Fibrillation and/or fissure (lateral condyle of tibia): 0
Loss of chondrocytes (lateral condyle of tibia): 0
Loss of superficial layer (lateral condyle of tibia): 0
Lowered proteoglycan stainability [2]: 0 (3×) and 1 (3×)
Histopathological score [2]: 0 (3×) and 1 (3×)
damages resulting from the preparation of osteoarthritis models (lateral condyles of the femur and of the tibia): substantially no damages
Cartilage erosion, Mean (medial condyle of femur): 1.17
Cluster formation, Mean (medial condyle of femur): 2.17
Disorganization of chondrocytes, Mean (medial condyle of femur): 0.83
Exposure of subchondral bone, Mean (medial condyle of femur): 0.33
Fibrillation and/or fissure, Mean (medial condyle of femur): 0.67
Loss of chondrocytes, Mean (medial condyle of femur): 0.83
Loss of superficial layer, Mean (medial condyle of femur): 1.17
Lowered proteoglycan stainability, Mean (medial condyle of femur): 1.17
Histopathological score, Mean (medial condyle of femur, p=0.0649 vs vehicle, listed as Test substance, sodium salt): 8.33
Histopathological score, Mean (medial condyle of femur, p=0.0649 vs vehicle, listed as test substance, sodium salt): 8.33±2.51
Cartilage erosion [3]: 1 (4×) and 0 and 3
Cluster formation [3]: 2 (4×) and 4 and 1
Disorganization of chondrocytes [3]: 0 and 1 (5×)
Exposure of subchondral bone [3]: 0 (5×) and 2
Fibrillation and/or fissure [3]: 1 and 0 (4×) and 3
Loss of chondrocytes [3]: 0 (3×) and 1 (2×) and 3
Loss of superficial layer [3]: 1 (4×) and 0 and 3
Lowered proteoglycan stainability [3]: 1 (2×) and 2 and 0 (2×) and 3
Histopathological score [3]: 6 (2×) and 10 and 3 and 20 and 5
Histopathological score (medial condyle of femur, listed as test substance, sodium salt): 6 (2×) and 5 and 10 and 3 and 20
samples in which cartilage erosion was observed [4]: 5
samples in which cluster formation was observed [4]: 6
samples in which disorganization of chondrocytes was observed [4]: 5
samples in which loss of cartilage superficial layer was observed [4]: 5
samples with changes lesser than those observed in the vehicle administered group [4]: 4
histopathological scores compared with the vehicle administered group (medial condyle of the femur, p=0.0649): lower than those of the vehicle administered group
samples in which cartilage fibrillation and/or fissure was observed [5]: 6
samples in which loss of cartilage superficial layer was observed [5]: 5
samples in which lowered proteoglycan stainability was observed [5]: 5
Cartilage erosion, Mean (medial condyle of tibia): 1.17
Cluster formation, Mean (medial condyle of tibia): 1.50
Disorganization of chondrocytes, Mean (medial condyle of tibia): 1.33
Exposure of subchondral bone, Mean (medial condyle of tibia): 0.50
Fibrillation and/or fissure, Mean (medial condyle of tibia): 1.50
Loss of chondrocytes, Mean (medial condyle of tibia): 0.67
Loss of superficial layer, Mean (medial condyle of tibia): 2.00
Lowered proteoglycan stainability, Mean (medial condyle of tibia): 1.83
Histopathological score, Mean (medial condyle of tibia, p=0.6991 vs vehicle, listed as Test substance, sodium salt): 10.50
Histopathological score, Mean (medial condyle of tibia, p=0.6991 vs vehicle, listed as test substance, sodium salt): 10.50±3.91
Cartilage erosion [6]: 2 and 1 (2×) and 0 (2×) and 3
Cluster formation [6]: 4 and 1 (2×) and 0 (2×) and 3
Disorganization of chondrocytes [6]: 2 and 1 (2×) and 0 (2×) and 4
Exposure of subchondral bone [6]: 0 (5×) and 3
Fibrillation and/or fissure [6]: 1 (4×) and 3 and 2
Loss of chondrocytes [6]: 0 (4×) and 3 and 1
Loss of superficial layer [6]: 3 (2×) and 1 (2×) and 0 and 4
Lowered proteoglycan stainability [6]: 4 (2×) and 1 (3×) and 0
Histopathological score [6]: 16 and 6 and 1 and 27 and 9 and 4
Histopathological score (medial condyle of tibia, listed as test substance, sodium salt): 4 and 16 and 6 and 1 and 27 and 9
